Reference: ChEMBL document CHEMBL4130367, “Click chemistry-based synthesis and anticancer activity evaluation of novel C-14 1,2,3-triazole dehydroabietic acid hybrids” (Eur J Med Chem, 2017)
Calls of active or inactive are those of the source. No cut-off for these calls is given here.

Legend:
[1] = test system: SK-OV-3; test: Cytotoxicity against human SKOV3 cells assessed as reduction in cell viability after 72 hrs by MTT assay; type: functional, cell-based; details: SK-OV-3, 72 h
[2] = test system: PC-3; test: Cytotoxicity against human PC3 cells assessed as reduction in cell viability after 72 hrs by MTT assay; type: functional, cell-based; details: PC-3, 72 h
[3] = test system: L02; test: Cytotoxicity against human HL7702 cells assessed as reduction in cell viability after 72 hrs by MTT assay; type: cell-based; details: L02, 72 h
[4] = Selectivity index, ratio of IC50 for human HL7702 cells to IC50 for human LNCAP cells; type: toxicity; details: HL7702 cells versus LNCAP cells, read-out: Ratio IC50
[5] = Selectivity index, ratio of IC50 for human HL7702 cells to IC50 for human SMCC7721 cells; type: toxicity; details: HL7702 cells versus SMCC7721 cells, read-out: Ratio IC50
[6] = Selectivity index, ratio of IC50 for HFF cells to IC50 for human SKBR3 cells; type: toxicity; details: HFF cells versus SKBR3 cells, read-out: Ratio IC50
[7] = Selectivity index, ratio of IC50 for HFF cells to IC50 for human A549 cells; type: toxicity; details: HFF cells versus A549 cells, read-out: Ratio IC50
[8] = Selectivity index, ratio of IC50 for HFF cells to IC50 for human SMCC7721 cells; type: toxicity; details: HFF cells versus SMCC7721 cells, read-out: Ratio IC50
[9] = test system: NCI/ADR-RES; test: Growth inhibition of human MCF7/ADR cells at 2.5 to 5 uM after 72 hrs by MTT assay relative to control; type: functional
[10] = Metabolic stability in mouse liver microsomes assessed as parent compound remaining after 30 mins in presence of NADPH by HPLC analysis; type: ADME, microsome; details: read-out: Stability
[11] = Metabolic stability in mouse liver microsomes assessed as parent compound remaining after 120 mins in presence of NADPH by HPLC analysis; type: ADME, microsome; details: read-out: Stability
[12] = Metabolic stability in mouse liver microsomes assessed as parent compound remaining after 180 mins in presence of NADPH by HPLC analysis; type: ADME, microsome; details: read-out: Stability
[13] = test system: MDA-MB-231; test: Induction of apoptosis in human MDA-MB-231 cells assessed as early apoptotic cells at 1 uM after 24 hrs by Annexin V-FITC/propidium iodide staining based flow cytometry (reference value: 2.33%); type: functional
[14] = test system: MDA-MB-231; test: Downregulation of NFkB p65 protein expression in human MDA-MB-231 cells up to 1 uM after 48 hrs by Western blot analysis; type: functional, cell-based
[15] = test system: MDA-MB-231; test: Induction of apoptosis in human MDA-MB-231 cells assessed as cleaved caspase-3 protein expression up to 1 uM after 48 hrs by Western blot analysis; type: functional, cell-based
[16] = test system: MCF7; test: cells; details: Homo sapiens, MCF7, 72 h
Description: Cytotoxicity against human MCF7 cells assessed as reduction in cell viability after 72 hrs by MTT assay

Question: Which IC50 [1] does the source give for COC(=O)[C@]1(C)CCC[C@]2(C)c3ccc(C(C)C)c(NC(=O)Cn4cc(-c5cccc(NC(=O)OC(C)(C)C)c5)nn4)c3CC[C@@H]12 here?
Answer: 1.2 µM

Question: What about the IC50 [2] of the same compound?
Answer: 0.9 µM

Question: And the IC50 [3]?
Answer: 7.8 µM

Question: What about the selectivity ratio [4] of the same compound?
Answer: 12.4

Question: And the selectivity ratio [5]?
Answer: 7.6

Question: And the selectivity ratio [6]?
Answer: 5.8

Question: What about the selectivity ratio [7] of the same compound?
Answer: 4.2

Question: And the selectivity ratio [8]?
Answer: 5.2

Question: What about the “growth inhibition (GI)” value [9] of the same compound?
Answer: >50%

Question: What about the remaining at 0.5 h [10] of the same compound?
Answer: 87.9%

Question: And the remaining at 2 h [11]?
Answer: 43.7%

Question: And the remaining at 3 h [12]?
Answer: 11.1%

Question: And the Activity [13]?
Answer: 6.13%

Question: What about the Activity [14] of the same compound?
Answer: Active

Question: What about the Activity [15] of the same compound?
Answer: Active

Question: And the IC50 [16]?
Answer: 0.8 µM
